Measurements as given in ChEMBL document CHEMBL1144628, “6-Hydrazinopurine 2'-methyl ribonucleosides and their 5'-monophosphate prodrugs as potent hepatitis C virus inhibitors” (Bioorg Med Chem Lett, 2007).

Tests used:
Hepatitis C virus = assay: Antiviral activity against HCV by replicon assay; format: functional, organism-based, Hepacivirus hominis
[1] = Stability in human simulated intestinal fluid at 1 mg/mL after 60 mins; format: ADME; details: read-out: Stability
[2] = Stability in human simulated gastric fluid; format: ADME, Stomach; details: simulated gi fluid
[3] = Stability in human simulated intestinal fluid at 1 mg/mL after 30 mins; format: ADME; details: read-out: Stability
Plasma = assay: Stability in human plasma; format: ADME, cell-free
[4] = Stability in human simulated intestinal fluid at 1 mg/mL after 2 hrs; format: ADME; details: simulated gi fluid

Row | Structure (SMILES) | EC50 (Hepatitis C virus) [nM] | remaining at 1 h, 1 mg/mL [1] [%] | Stability [2] | remaining at 0.5 h, 1 mg/mL [3] [%] | Stability (Plasma) | Stability [4]
1 | COC(=O)C(C)NP(=O)(OC[C@H]1O[C@@H](n2cnc3c(N(C)NS(C)(=O)=O)nc(N)nc32)[C@](C)(O)[C@@H]1O)Oc1ccccc1 (stereo not given in full) | 1200 |  |  |  |  | 
2 | COC(=O)C(C)NP(=O)(OC[C@H]1O[C@@H](n2cnc3c(N(C)NS(C)(=O)=O)nc(N)nc32)[C@](C)(O)[C@@H]1O)Oc1ccc(Cl)cc1 (stereo not given in full) | 800 |  |  |  |  | 
3 | CC(NP(=O)(OC[C@H]1O[C@@H](n2cnc3c(N(C)NS(C)(=O)=O)nc(N)nc32)[C@](C)(O)[C@@H]1O)Oc1ccccc1)C(=O)OCc1ccccc1 (stereo not given in full) | 2200 | 0 | Stable | 0 | Stable | 
4 | CN(NS(C)(=O)=O)c1ncnc2c1ncn2[C@@H]1O[C@H](COP(=O)(OCCSC(=O)C(C)(C)C)OCCSC(=O)C(C)(C)C)[C@@H](O)[C@@]1(C)O | 60 |  |  |  |  | 
5 | CN(NS(C)(=O)=O)c1nc(N)nc2c1ncn2[C@@H]1O[C@H](CO)[C@@H](O)[C@@]1(C)O | 92000 |  |  |  |  | 
6 | CN(NS(C)(=O)=O)c1ncnc2c1ncn2[C@@H]1O[C@H](CO)[C@@H](O)[C@@]1(C)O | 300000 |  |  |  |  | 
7 | COC(=O)C(C)NP(=O)(OC[C@H]1O[C@@H](n2cnc3c(N(C)NS(C)(=O)=O)ncnc32)[C@](C)(O)[C@@H]1O)Oc1ccc(Cl)cc1 (stereo not given in full) | 2600 |  |  |  |  | 
8 | COC(=O)CNP(=O)(OC[C@H]1O[C@@H](n2cnc3c(N(C)NS(C)(=O)=O)nc(N)nc32)[C@](C)(O)[C@@H]1O)Oc1ccccc1 (stereo not given in full) | 22000 | 0 | Stable | 0 | Stable | 
9 | COC(=O)CNP(=O)(OC[C@H]1O[C@@H](n2cnc3c(N(C)NS(C)(=O)=O)nc(N)nc32)[C@](C)(O)[C@@H]1O)Oc1ccc(Cl)cc1 (stereo not given in full) | 8900 | 0 | Stable | 0 | Stable | 
10 | CC(NP(=O)(OC[C@H]1O[C@@H](n2cnc3c(N(C)NS(C)(=O)=O)ncnc32)[C@](C)(O)[C@@H]1O)Oc1ccccc1)C(=O)OCc1ccccc1 (stereo not given in full) | 2900 | 0 | Stable | 0 | Stable | 
11 | CC(NP(=O)(OC[C@H]1O[C@@H](n2cnc3c(N(C)NS(C)(=O)=O)nc(N)nc32)[C@](C)(O)[C@@H]1O)Oc1ccc(Cl)cc1)C(=O)OCc1ccccc1 (stereo not given in full) | 110 | 0 | Stable | 0 | Stable | 
12 | CC(C)OC(=O)C(C)NP(=O)(OC[C@H]1O[C@@H](n2cnc3c(N(C)NS(C)(=O)=O)ncnc32)[C@](C)(O)[C@@H]1O)Oc1ccc(Cl)cc1 (stereo not given in full) | 2500 | 48 | Stable | 67 | Stable | 
13 | COC(=O)CNP(=O)(OC[C@H]1O[C@@H](n2cnc3c(N(C)NS(C)(=O)=O)ncnc32)[C@](C)(O)[C@@H]1O)Oc1ccccc1 (stereo not given in full) | 220000 | 0 | Stable | 0 | Stable | 
14 | CC(NP(=O)(OC[C@H]1O[C@@H](n2cnc3c(N(C)NS(C)(=O)=O)ncnc32)[C@](C)(O)[C@@H]1O)Oc1ccc(Cl)cc1)C(=O)OCc1ccccc1 (stereo not given in full) | 680 | 0 | Stable | 0 | Stable | 
15 | CC(C)OC(=O)C(C)NP(=O)(OC[C@H]1O[C@@H](n2cnc3c(N(C)NS(C)(=O)=O)nc(N)nc32)[C@](C)(O)[C@@H]1O)Oc1ccc(Cl)cc1 (stereo not given in full) | 270 | 37 | Stable | 61 | Stable | 
16 | COC(=O)C(C)(C)NP(=O)(OC[C@H]1O[C@@H](n2cnc3c(N(C)NS(C)(=O)=O)ncnc32)[C@](C)(O)[C@@H]1O)Oc1ccc(Cl)cc1 (stereo not given in full) | 1400 | 100 | Stable | 100 | Stable | Stable
17 | COC(=O)C(C)(C)NP(=O)(OC[C@H]1O[C@@H](n2cnc3c(N(C)NS(C)(=O)=O)nc(N)nc32)[C@](C)(O)[C@@H]1O)Oc1ccc(Cl)cc1 (stereo not given in full) | 260 | 100 | Stable | 100 | Stable | Stable
18 | COC(=O)C(C)NP(=O)(OC[C@H]1O[C@@H](n2cnc3c(N(C)NS(C)(=O)=O)ncnc32)[C@](C)(O)[C@@H]1O)Oc1ccccc1 (stereo not given in full) | 26000 |  |  |  |  | 
19 | CN(NS(C)(=O)=O)c1nc(N)nc2c1ncn2[C@@H]1O[C@H](COP(=O)(OCCSC(=O)C(C)(C)C)OCCSC(=O)C(C)(C)C)[C@@H](O)[C@@]1(C)O | 24 |  |  |  |  | 
20 | COC(=O)CNP(=O)(OC[C@H]1O[C@@H](n2cnc3c(N(C)NS(C)(=O)=O)ncnc32)[C@](C)(O)[C@@H]1O)Oc1ccc(Cl)cc1 (stereo not given in full) | 39000 | 0 | Stable | 0 | Stable | 
